Like-named read-outs stand apart in the source and are kept apart here.
Experiments:
[1] = ip injection, data from Brossi et al., J. Med. Chem., 26:1365 (1983); cited from earlier work
[2] = LD50 in mice after ip injection; assay type: in vivo
tubulin protein = assay: Tubulin binding in vitro

In the case of COc1cc2c(c(OC)c1OC)-c1ccc(OC)c(=O)cc1[C@@H](NC(C)=O)CC2 [Colchicine, colchicine], the “LD50 in Mice after ip inj” value [1] is given as 3.0 mg/kg.
For COc1cc2c(c(OC)c1OC)-c1ccc(SC)c(=O)cc1[C@@H](NC(=O)Oc1ccccc1)CC2 [Ph H SMe, N-Phenoxycarbonyl-deacetylthiocolchicine], the LD50 ([2]; mouse, in vivo, read-out: LD50 in Mice after ip inj) was 50 mg/kg.
In the case of CCOC(=O)N[C@H]1CCc2cc(OC)c(OC)c(OC)c2-c2ccc(SC)c(=O)cc21 [Et H SMe], the “Tubulin Binding in vitro” value (tubulin protein) is reported as 96 and the “LD50 in Mice after ip inj” value [2] is reported as 77.1 mg/kg.

— patent publication US4533675A (priority 1984, dated 1985)
